Reference: ChEMBL document CHEMBL5506059, “Cyanomethylquinolones as a New Class of Potential Multitargeting Broad-Spectrum Antibacterial Agents” (J Med Chem, 2024)
In brackets after ≈: the same amount, converted by molar mass. Activity calls are given as the source filed them. The rule behind the calls is not given here.

Tests used:
[1] = Cytotoxicity against human normal Squamous epithelial cell (NOK) assessed as inhibition of cell growth measured after 24 hrs by MTT assay; format: toxicity, cell-based; conditions: normal squamous epithelial cells (NOK)
[2] = test system: Staphylococcus aureus; test: Antibacterial activity against Staphylococcus aureus clinical isolate assessed as inhibition of bacterial growth incubated for 24 hrs; format: functional
[3] = test system: Streptococcus pyogenes; test: Antibacterial activity against Streptococcus pyogenes ATCC 19615 assessed as inhibition of bacterial growth incubated for 24 hrs; format: functional
[4] = test system: Cell membrane; test: Induction of cell membrane depolarization in Pseudomonas aeruginosa assessed as increase in fluorescence intensity at 1 ug/ml measured for 30 mins by DiSC35 dye based fluorescence analysis; format: cell membranes; conditions: dose 1.0 µg/ml
[5] = test system: Escherichia coli; test: Antibacterial activity against Escherichia coli ATCC 25922 assessed as inhibition of bacterial growth incubated for 24 hrs; format: functional
[6] = test system: Escherichia coli; test: Antibacterial activity against Escherichia coli clinical isolate assessed as inhibition of bacterial growth incubated for 24 hrs; format: functional
[7] = test system: Pseudomonas aeruginosa; test: Antibacterial activity against ciprofloxacin-treated Pseudomonas aeruginosa ATCC 27853 assessed as inhibition of bacterial growth measured after 24 hrs; format: functional
[8] = test system: Klebsiella pneumoniae; test: Antibacterial activity against Klebsiella pneumoniae clinical isolate assessed as inhibition of bacterial growth incubated for 24 hrs; format: functional
[9] = test system: Streptococcus pneumoniae; test: Antibacterial activity against Streptococcus pneumoniae ATCC 6305 assessed as inhibition of bacterial growth incubated for 24 hrs; format: functional
[10] = test system: Pseudomonas aeruginosa; test: Resistance development in Pseudomonas aeruginosa assessed as increase in MIC measured after 20 days; format: functional, organism-based; conditions: time 20.0 day
[11] = test system: Staphylococcus aureus; test: Antibacterial activity against methicillin resistant Staphylococcus aureus assessed as reduction in metabolic activity by measuring reduction in fluorescence intensity at 0.5 to 2 times MIC incubated for 6 hrs by alamar blue assay; format: functional, organism-based
[12] = test system: Enterococcus faecalis; test: Antibacterial activity against Enterococcus faecalis clinical isolate assessed as inhibition of bacterial growth incubated for 24 hrs; format: functional
[13] = test system: Staphylococcus aureus; test: Resistance development in methicillin resistant Staphylococcus aureus assessed as increase in MIC measured after 20 days; format: functional, organism-based; conditions: time 20.0 day
[14] = test system: Enterococcus faecalis; test: Potency index, ratio of ciprofloxacin MIC to test compound MIC for antibacterial activity against vancomycin-resistant Enterococcus faecalis clinical isolate p1-2007225053 assessed as inhibition of bacterial growth incubated for 24 hrs; format: functional
[15] = Hemolytic activity in human Red blood cells at 256 ug/ml measured after 1.5 hrs by absorbance based assay relative to control; format: toxicity, cell-based, Erythrocyte; conditions: red blood cells (erythrocytes), at 256 µg/mL, read-out: Activity
[16] = test system: Staphylococcus aureus; test: Antibacterial activity against Staphylococcus aureus ATCC 25923 assessed as inhibition of bacterial growth incubated for 24 hrs; format: functional
[17] = test system: Enterococcus faecium; test: Antibacterial activity against Enterococcus faecium ATCC 19434 assessed as inhibition of bacterial growth incubated for 24 hrs; format: functional
[18] = test system: Staphylococcus aureus; test: Antibacterial activity against ciprofloxacin-treated Staphylococcus aureus ATCC 6538 assessed as inhibition of bacterial growth measured after 24 hrs; format: functional
[19] = test system: HUVEC; test: Cytotoxicity against HUVEC cells assessed as reduction in cell viability at 0.78 to 25 ug/ml measured after 24 hrs by MTT assay; format: toxicity, cell-based; conditions: human, dose 0.78-25 µg/ml
[20] = test system: Pseudomonas aeruginosa; test: Antibacterial activity against Pseudomonas aeruginosa clinical isolate assessed as inhibition of bacterial growth incubated for 24 hrs; format: functional
[21] = test system: Staphylococcus aureus; test: Antibacterial activity against Staphylococcus aureus CMCC(B)26003 assessed as inhibition of bacterial growth incubated for 24 hrs; format: functional
[22] = test system: Enterococcus faecalis; test: Antibacterial activity against vancomycin-resistant Enterococcus faecalis clinical isolate p1-2007226001 assessed as inhibition of bacterial growth incubated for 24 hrs; format: functional
[23] = test system: Cell membrane; test: Induction of cell membrane permeability in methicillin-resistant Staphylococcus aureus assessed as increase in fluorescence intensity at 1 to 2 ug/ml incubated for 6 hrs by PI staining based fluorescence analysis; format: cell membranes; conditions: dose 1-2 µg/ml
[24] = test system: Enterococcus faecalis; test: Potency index, ratio of norfloxacin MIC to test compound MIC for antibacterial activity against vancomycin-resistant Enterococcus faecalis clinical isolate p1-2007225053 assessed as inhibition of bacterial growth incubated for 24 hrs; format: functional
[25] = test system: Pseudomonas aeruginosa; test: Induction of intracellular ROS generation in Pseudomonas aeruginosa assessed as increase in fluorescence intensity at 2 ug/ml incubated for 6 hrs in presence of N-acetyl-L-cysteine by DCFH-DA dye based fluorescence analysis; format: functional, organism-based; conditions: dose 2.0 µg/ml
[26] = test system: Cell membrane; test: Induction of cell membrane permeability in Pseudomonas aeruginosa assessed as increase in fluorescence intensity at 1 to 2 ug/ml incubated for 6 hrs by PI staining based fluorescence analysis; format: cell membranes; conditions: dose 1-2 µg/ml
[27] = test system: Staphylococcus aureus; test: Antibacterial activity against Staphylococcus aureus CMCC(B)26001 assessed as inhibition of bacterial growth incubated for 24 hrs; format: functional
[28] = test system: Staphylococcus aureus; test: Antibacterial activity against Staphylococcus aureus ATCC 29213 assessed as inhibition of bacterial growth incubated for 24 hrs; format: functional
[29] = Cytotoxicity against HUVEC cells assessed as cell viability at 25 ug/ml measured after 24 hrs by MTT assay relative to control; format: toxicity, cell-based; conditions: human, at 25 µg/mL, read-out: Activity
[30] = test system: Staphylococcus aureus; test: Antibacterial activity against Staphylococcus aureus ATCC 12600 assessed as inhibition of bacterial growth incubated for 24 hrs; format: functional
[31] = test system: Acinetobacter baumannii; test: Antibacterial activity against Acinetobacter baumannii clinical isolate assessed as inhibition of bacterial growth incubated for 24 hrs; format: functional
[32] = test system: Pseudomonas aeruginosa; test: Induction of intracellular ROS generation in Pseudomonas aeruginosa assessed as increase in fluorescence intensity at 2 ug/ml incubated for 6 hrs by DCFH-DA dye based fluorescence analysis; format: functional, organism-based; conditions: dose 2.0 µg/ml
[33] = test system: Pseudomonas aeruginosa; test: Antibiofilm activity in Pseudomonas aeruginosa assessed as biofilm eradication measured after 24 hrs by crystal violet staining based analysis; format: functional, organism-based; conditions: dose 1-2 µg/ml
[34] = test system: Staphylococcus aureus; test: Antibacterial activity against methicillin-resistant Staphylococcus aureus ATCC 43300 assessed as inhibition of bacterial growth incubated for 24 hrs; format: functional
[35] = test system: Staphylococcus aureus; test: Antibiofilm activity in methicillin resistant Staphylococcus aureus assessed as biofilm eradication measured after 24 hrs by crystal violet staining based analysis; format: functional, organism-based; conditions: dose 1-2 µg/ml
[36] = test system: Staphylococcus aureus; test: Antibacterial activity against Staphylococcus aureus ATCC 6538 assessed as inhibition of bacterial growth incubated for 24 hrs; format: functional
[37] = test system: Pseudomonas aeruginosa; test: Antibacterial activity against Pseudomonas aeruginosa assessed as reduction in metabolic activity by measuring reduction in fluorescence intensity at 0.5 to 2 times MIC incubated for 6 hrs by alamar blue assay; format: functional, organism-based
[38] = test system: Staphylococcus epidermidis; test: Antibacterial activity against Staphylococcus epidermidis ATCC 12228 assessed as inhibition of bacterial growth incubated for 24 hrs; format: functional
[39] = test system: Erythrocyte; test: Hemolytic activity in human Red blood cells assessed as concentration required for 5% hemolysis measured after 1.5 hrs by absorbance based assay; format: toxicity, cell-based
[40] = test system: Staphylococcus aureus; test: Antibacterial activity against methicillin resistant Staphylococcus aureus clinical isolate assessed as inhibition of bacterial growth incubated for 24 hrs; format: functional
[41] = test system: Cell membrane; test: Induction of cell membrane damage in Pseudomonas aeruginosa assessed as increase in nucleic acid leakage at 0 to 2 ug/ml incubated for 12 hrs by optical density based microplate reader analysis; format: cell membranes; conditions: dose 0-2 µg/ml
[42] = test system: L02; test: Cytotoxicity against human L02 cells assessed as reduction in cell viability at 0.78 to 25 ug/ml measured after 24 hrs by MTT assay; format: toxicity, cell-based; conditions: l02, 24 h, dose 0.78-25 µg/ml
[43] = test system: Cell membrane; test: Induction of cell membrane damage in methicillin-resistant Staphylococcus aureus assessed as increase in nucleic acid leakage at 0 to 2 ug/ml incubated for 12 hrs by optical density based microplate reader analysis; format: cell membranes; conditions: dose 0-2 µg/ml
[44] = test system: Staphylococcus aureus; test: Antibacterial activity against methicillin resistant Staphylococcus aureus clinical isolate assessed as inhibition of bacterial growth at 1 times MIC incubated under dark condition and measured upto 5 hrs relative to control; format: functional
[45] = test system: Enterococcus faecalis; test: Antibacterial activity against vancomycin-resistant Enterococcus faecalis clinical isolate p1-2007225053 assessed as inhibition of bacterial growth incubated for 24 hrs; format: functional
[46] = test system: Pseudomonas aeruginosa; test: Antibacterial activity against Pseudomonas aeruginosa ATCC 27853 assessed as inhibition of bacterial growth incubated for 24 hrs; format: functional
[47] = test system: Cell membrane; test: Induction of cell membrane depolarization in methicillin-resistant Staphylococcus aureus assessed as increase in fluorescence intensity at 1 ug/ml measured for 30 mins by DiSC35 dye based fluorescence analysis; format: cell membranes; conditions: dose 1.0 µg/ml
[48] = Cytotoxicity against human FHC assessed as inhibition of cell growth measured after 24 hrs by MTT assay; format: toxicity, cell-based; conditions: FHC cells

Molecule `C[C@H]1COc2c(CC#N)c(F)cc3c(=O)c(C(=O)O)cn1c23` has an IC50 at 24 h [1] of 54 µg/mL (≈ 179 µM), an MIC [2] of 0.25 µg/mL (≈ 0.827 µM) and an MIC [3] of 2 µg/mL (≈ 6.62 µM). The Activity [4] was “Active”, the MIC [5] was 0.25 µg/mL (≈ 0.827 µM) and the MIC [6] was 1 µg/mL (≈ 3.31 µM). The MIC [7] was 2 µg/mL (≈ 6.62 µM), the MIC [8] was 1 µg/mL (≈ 3.31 µM) and the MIC [9] was 0.5 µg/mL (≈ 1.65 µM). The Activity [10] was “inactive”, the Activity [11] was “Active” and the MIC [12] was 2 µg/mL (≈ 6.62 µM). For the same molecule, the Activity [13] was “inactive”, the Ratio [14] was 2 and the hemolysis at 1.5 h, 256 ug/ml [15] was less than 1%. It also gave an MIC [16] of 0.25 µg/mL (≈ 0.827 µM), an MIC [17] of 0.5 µg/mL (≈ 1.65 µM) and an MIC [18] of 2 µg/mL (≈ 6.62 µM). The Activity [19] was “Non-Toxic”, the MIC [20] was 0.25 µg/mL (≈ 0.827 µM) and the MIC [21] was 0.125 µg/mL (≈ 0.414 µM). The MIC [22] was 0.5 µg/mL (≈ 1.65 µM), the Activity [23] was “Active” and the Ratio [24] was 8. For the same molecule, the Activity [25] was “inactive”, the Activity [26] was “Active” and the MIC [27] was 0.125 µg/mL (≈ 0.414 µM). The MIC [28] was 0.5 µg/mL (≈ 1.65 µM), the viability at 24 h, 25 ug/ml [29] was greater than 90% and the MIC [30] was 0.25 µg/mL (≈ 0.827 µM). For the same molecule, the MIC [31] was 0.25 µg/mL (≈ 0.827 µM), the Activity [32] was “Active” and the Activity [33] was “Dose-Dependent Effect”. For the same molecule, the MIC [34] was 0.125 µg/mL (≈ 0.414 µM), the Activity [35] was “Dose-Dependent Effect” and the MIC [36] was 0.25 µg/mL (≈ 0.827 µM). For the same molecule, the Activity [37] was “Active”, the MIC [38] was 0.25 µg/mL (≈ 0.827 µM) and the HC5 [39] was greater than 10000 µg/mL. The MIC [40] was 0.5 µg/mL (≈ 1.65 µM), the Activity [41] was “Active” and the Activity [42] was “Non-Toxic”. The Activity [43] was “Active”, the “inhibition (INH)” value [44] was roughly 100% and the MIC [45] was 0.125 µg/mL (≈ 0.414 µM). For the same molecule, the MIC [46] was 0.25 µg/mL (≈ 0.827 µM), the Activity [47] was “Active” and the IC50 at 24 h [48] was 21 µg/mL (≈ 69.5 µM).
